As usually defined, the IC50 is the concentration that inhibits the measured activity by half. Read a high IC50 as a need for much substance.

The experiment deals with T1, Tyrosine-protein phosphatase non-receptor type 7 (Homo sapiens, UniProt P35236).
T1 sequence (P35236 whole entry): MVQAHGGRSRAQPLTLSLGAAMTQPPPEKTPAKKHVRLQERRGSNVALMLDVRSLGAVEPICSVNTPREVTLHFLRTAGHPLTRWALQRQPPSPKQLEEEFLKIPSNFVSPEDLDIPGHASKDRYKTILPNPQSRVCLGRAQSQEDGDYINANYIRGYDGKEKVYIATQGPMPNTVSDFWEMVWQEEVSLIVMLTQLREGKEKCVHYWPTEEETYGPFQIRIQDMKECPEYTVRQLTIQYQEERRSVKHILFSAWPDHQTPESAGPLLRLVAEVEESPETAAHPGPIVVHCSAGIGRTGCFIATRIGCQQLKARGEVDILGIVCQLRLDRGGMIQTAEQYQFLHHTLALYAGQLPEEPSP
Briefly: HePTP phosphatase inhibitors, dose response, biochemical, fluorescence, OMFP substrate, HTS hits, set 2 (AID 435032).
Compound `COC1=CC=CC(/C=N/NC(=O)c2cc3cc([N+](=O)[O-])ccc3s2)C1=O` (stereo not given) [SMR000237814] gave an IC50 of 14.9 µM.

The compound `O=C1C([N+](=O)[O-])=CC(Br)=CC1/C=N/n1cnnc1` (stereo not given) [MLS000714804] returned an IC50 of over 79.4 µM.

Take `Cc1ccc(NN=C2C(=O)N(CN3CCOCC3)c3ccccc32)cc1` [(3Z)-3-[(4-methylphenyl)hydrazinylidene]-1-(4-morpholinylmethyl)-2-indolone]: the IC50 is over 79.4 µM.

The compound `CCOC(=O)NC(=O)C(C=Nc1ccc(C)cc1)C(=O)NC(=O)OCC` [ethyl 2-{[(ethoxycarbonyl)amino]carbonyl}-3-(4-toluidino)acryloylcarbamate] returned an IC50 of over 79.4 µM.

Take `N=C(NN=Cc1ccc2c(c1)OCO2)Sc1cc(O)n(-c2ccc(C(=O)O)cc2)c1O` [4-(3-{[[(2E)-2-(1,3-benzodioxol-5-ylmethylene)hydrazino](imino)methyl]thio}-2,5-dioxopyrrolidin-1-yl)benzoic acid]: the IC50 came out at 7.33 µM.

(Values after BindingDB's records for doi:10.7270/Q2VQ314Z (Burnham Center For Chemical Genomics, 2010).)
